For data set [1], the system named is healthy adult subjects. As to the kind of experiment: Study 2 (MAD) safety and tolerability: TEAEs, urine crystals. The class given is in vivo. As for the experimental part:
Study 2 (B7921002; NCT02485769) was a 14-day, phase 1, randomized, double-blind, sponsor-open, placebo-controlled, sequential group, MAD study in healthy adult subjects (Fig. 1b).
Subjects were enrolled sequentially into seven cohorts. Within each cohort, eight subjects and two subjects were randomized to receive PF-06650833 and placebo, respectively. Doses for all cohorts were administered after a standard (not high-fat) meal. Multiple dosing regimens (once daily [QD] 24 h apart, twice daily [BID] 12 h apart, three times per day [TID] 8 h apart, and four times per day [QID] 6 h apart) were used to provide required total daily doses. In the final dosing scheme, multiple oral doses of PF-06650833 IR suspension formulations at 25, 100, 250, and 750 mg BID and 1000 mg QID were administered in cohorts 1–5. PF-06650833 IR 330 mg TID (cohort 6) and an MR tablet at a dose of 300 mg QD (cohort 7) were also evaluated (see Fig. 1b for final dosing scheme).
Dose escalation (cohorts 1–5) or dose selection (cohorts 6–8) was based upon the evaluation of ≥ 7 days of safety and tolerability for all subjects and ≥ 12 h of PK data for at least six subjects receiving PF-06650833. To establish an MTD, dose escalation was to cease when the limit of tolerability was achieved.
Safety assessments included incidence and severity of treatment-emergent AEs (TEAEs) and discontinuation due to TEAEs, incidence of treatment-emergent clinical laboratory abnormalities, and proportion of subjects meeting with pre-defined criteria for potential clinical concern in vital signs and electrocardiogram (ECG) parameters.
The safety analysis set was defined as all subjects who received at least one dose of study treatment, and data were summarized descriptively. The PK concentration analysis set was defined as all enrolled, treated subjects who had at least one concentration in at least one treatment period. The PK parameter analysis set was defined as all enrolled, treated subjects who had at least one of the PK parameters of interest in at least one treatment period. The PD analysis set was defined as all enrolled subjects who received at least one dose of PF-06650833 and had at least one PD parameter. PK/PD data were summarized descriptively.
PK parameters were calculated using non-compartmental analysis of concentration-time data. For study 1 only, data from cohort 1 (period 4 [IR 30 mg] versus period 5 [IR 30 mg + food]) and cohort 3 (period 2 [MR 30 mg] versus period 3 [MR 30 mg + food]) were used to estimate the effect of food intake. Cmax and AUC were calculated for each subject and treatment, with and without food, after which a within-subject difference could be found between fed (high-fat meal) and fasted doses. Analysis of covariance was used to model these within-subject differences and to calculate 95% confidence intervals (CIs) for the differences for each dose (IR 30 mg and MR 30 mg). For study 2 only, the amounts of PF-06650833 in urine and renal clearance were listed and summarized descriptively. As part of the routine safety laboratory monitoring, the presence of any atypical crystals in urine specimens was semi-quantitatively assessed microscopically by typical histopathologic methods and scored as numbers of crystals per high power field (hpf); higher abundance (moderate or many) was defined as ≥ 15/hpf. No formal interim analyses were conducted.

For data set [2], the system named is high-sensitivity C-reactive protein (hsCRP). As to the kind of experiment: Study 2 (MAD) serum hsCRP pharmacodynamics. It counts as in vivo, human. The text has this:
The primary objective of study 2 was to determine the safety and tolerability of MAD of orally administered IR and MR formulations of PF-06650833 after a standard meal in healthy adult subjects. The secondary objective was to evaluate the plasma and urine PK profiles of PF-06650833 after repeat dosing. Exploratory objectives were to assess the effects of PF-06650833 on exploratory biomarkers of PD activity, including high-sensitivity C-reactive protein (hsCRP), and to evaluate cholesterol/hydroxycholesterol ratios as an endogenous marker for cytochrome P450 3A (CYP3A) induction or inhibition.
For both studies, samples of blood (and urine in study 2) were taken for evaluation of PK/PD parameters (see Additional file 1: Supplemental Methods). PK samples were obtained at the nominal time relative to dosing (± 10%). Plasma and urine samples were analyzed using validated, sensitive, and specific liquid chromatography tandem mass spectrometric methods (at Pfizer Inc., Groton, CT, USA, for study 1 and at Worldwide Pharmacokinetics, Dynamics and Metabolism, Cambridge, MA, USA, for study 2). The lower limit of quantification for PF-06650833 in plasma was 0.0500 ng/mL. The lower limit of quantification for PF-06650833 in urine was 1.00 ng/mL. Serum samples were also analyzed for hsCRP, and plasma samples were analyzed for 4β-hydroxycholesterol and cholesterol.
The safety analysis set was defined as all subjects who received at least one dose of study treatment, and data were summarized descriptively. The PK concentration analysis set was defined as all enrolled, treated subjects who had at least one concentration in at least one treatment period. […]
35 Plasma samples were analyzed using a validated, sensitive , and specific liquid […]
38 MA, USA for Study 2). The lower limit of quantification (LLOQ) for PF-06650833 in plasma
39 was 0.0500 ng/mL. Between-day assay accuracy values were also calculated (not shown). […]
44 cohorts. Urine samples were also analyzed using a validated, sensitive , and specific LC-MS […]

[3] abbreviates: IR 100 mg BID, 14 days, fed, 8 evaluable.

This note sets out measurements from article PMC6896740, “Safety, tolerability, pharmacokinetics, and pharmacodynamics of PF-06650833, a selective interleukin-1 receptor-associated kinase 4 (IRAK4) inhibitor, in single and multiple ascending dose randomized phase 1 studies in healthy subjects” (Arthritis Research & Therapy, 2019).

As to `CC[C@@H]1[C@H](F)C(=O)N[C@@H]1COc1nccc2cc(C(N)=O)c(OC)cc12` [PF-06650833, 1-{[(2S,3S,4S)-3-Ethyl-4-fluoro-5-oxopyrrolidin-2-yl]methoxy}-7-methoxyisoquinoline-6-carboxamide], the “Infections and infestations: subjects with AE, all causalities (treatment-related)” value in data set [1] (setting [3]) is listed as 1 (0); in data set [1] (IR 750 mg BID, 14 days, fed, 8 evaluable) it was 1 (1); in data set [1] (MR 300 mg QD, 14 days, fed, 8 evaluable), 1 (0). Moreover, the “Upper respiratory tract infection: subjects with AE, all causalities (treatment-related)” value in data set [1] (setting [3]) is given as 1 (0). For the same compound, the “Nasal congestion: subjects with AE, all causalities (treatment-related)” value in data set [1] (IR 330 mg TID, 14 days, fed, 8 evaluable) is recorded as 1 (1). In addition, the “Serious AEs or deaths” value in data set [1] (all dose groups) is given as “No serious AEs or deaths”. In data set [1] (in vivo), the “Severity of TEAEs” value was “mild or moderate”. Besides, the Maximum tolerated dose entry in data set [1] (multiple doses up to IR 1000 mg QID, MR 300 mg QD) is given as “not established”. For the same compound, the “Day by which maximal hsCRP reduction was reached” value in data set [2] (IR ≥ 250 mg BID and MR 300 mg QD) was not above 7 days. Further, the “Change from baseline in serum hsCRP” value in data set [2] (IR ≥ 250 mg BID and MR 300 mg QD, multiple dosing) was “sustained decrease”. Moreover, the “Reduction from baseline in hsCRP (geometric mean percentage)” value in data set [2] (day 14, highest dose groups) is 60–70%.
